{"source": "patent US9067894B1", "about": "“Compound, composition, and method of activating GIRK potassium channel and use of same for treating conditions of interest” (Vanderbilt University, priority 2013, dated 2015)", "key": {"[1]": {"biological_target": "T1, Kv7.4 (Homo sapiens, UniProt P56696)", "T1 construct": "expressed in transfected cells; host or cells: HEK-293", "experiment": "Thallium flux assay, Kv7.4-expressing cells", "format": "cell-based", "source_text": "Cell Line Construction and Cell Culture. HEK-293 cells co-expressing human GIRK1/2 and rat mGlu8 were generated as previously described (Niswender et al., 2008). A HEK-293 cell line (ATCC, Manassas, Va.) expressing human GIRK1 and human GIRK2 was constructed by transfecting HEK-293 cells with GIRK1 and GIRK2 (Origene, Rockville, Md.) cloned into the pBudCE4.1 vector (Life Technologies, Carlsbad, Calif.) using FuGene 6 (Promega, Madison, Wis.) transfection reagent. Unless otherwise noted, other ion channel-expressing cells were prepared by transfecting HEK-293 cells with individual or combinations of subunits: GIRK1, pCMV6-A-BSD; GIRK2, pCMV6-A-puro; GIRK3, pCMV6-A-hygro; GIRK4, pCMV6-A-AC; Kv7.4, pIRESneo3. The Kir2.1 and hERG-expressing cell lines were made by transfecting T-REx-293 cells (Life Technologies, Carlsbad, Calif.) with Kir2.1 and Kv11.1, respectively, cloned into pcDNA5TO. Monoclonal cell lines were produced by limiting-dilution cloning of antibiotic-resistant cells and functional selection using the thallium flux assay described below. Unless otherwise noted, cells were maintained in Minimal Essential Medium, Alpha Medium (Mediatech, Manassas, Va.) supplemented with 10% fetal bovine serum (Sigma-Aldrich, Saint Louis, Mo.) and GlutaGro (Mediatech, Manassas, Va.), referred to henceforth as cell culture medium. […]"}, "[2]": {"experiment": "Ascending dose study in mice", "format": "in vivo, mouse", "details": "mice, 10, 30, 60 mg/kg intraperitoneal", "experimental": "To begin to assess […] pharmacodynamics properties, an ascending dose study (10, 30, 60 mg/kg, intraperitoneal injection) was performed in mice."}, "[3]": {"biological_target": "T2, Adrenergic α1B (Rattus norvegicus, UniProt P15823)", "T2 construct": "Ricerca (contract assay)", "T2 sequence (P15823 whole entry)": "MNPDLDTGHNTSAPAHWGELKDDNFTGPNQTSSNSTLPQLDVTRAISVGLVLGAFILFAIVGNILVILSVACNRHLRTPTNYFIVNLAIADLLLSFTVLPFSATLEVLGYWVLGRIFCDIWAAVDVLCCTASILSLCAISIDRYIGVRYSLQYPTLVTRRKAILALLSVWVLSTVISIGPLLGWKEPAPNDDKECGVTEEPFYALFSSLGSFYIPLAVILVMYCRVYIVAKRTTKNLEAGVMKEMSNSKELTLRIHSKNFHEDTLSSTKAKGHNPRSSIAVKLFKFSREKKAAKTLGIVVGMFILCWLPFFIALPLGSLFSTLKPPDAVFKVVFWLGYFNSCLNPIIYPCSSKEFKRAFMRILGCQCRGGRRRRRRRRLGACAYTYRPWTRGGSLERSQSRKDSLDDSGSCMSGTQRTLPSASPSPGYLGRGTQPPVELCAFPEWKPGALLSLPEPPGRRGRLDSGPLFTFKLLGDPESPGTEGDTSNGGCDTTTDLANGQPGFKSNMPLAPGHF", "experiment": "Radioligand displacement (Ricerca)", "format": "binding"}, "[4]": {"tested_on": "L-Type Ca channel (benzothiazepine)", "experiment": "Radioligand displacement (Ricerca)", "format": "binding, rat", "details": "10 μM"}, "[5]": {"tested_on": "L-Type Ca channel (dihydropyridine)", "experiment": "Radioligand displacement (Ricerca)", "format": "binding, rat", "details": "10 μM"}, "[6]": {"biological_target": "T3, Cannabinoid CB1 (Homo sapiens, UniProt P21554)", "T3 construct": "Ricerca", "T3 sequence (P21554 whole entry)": "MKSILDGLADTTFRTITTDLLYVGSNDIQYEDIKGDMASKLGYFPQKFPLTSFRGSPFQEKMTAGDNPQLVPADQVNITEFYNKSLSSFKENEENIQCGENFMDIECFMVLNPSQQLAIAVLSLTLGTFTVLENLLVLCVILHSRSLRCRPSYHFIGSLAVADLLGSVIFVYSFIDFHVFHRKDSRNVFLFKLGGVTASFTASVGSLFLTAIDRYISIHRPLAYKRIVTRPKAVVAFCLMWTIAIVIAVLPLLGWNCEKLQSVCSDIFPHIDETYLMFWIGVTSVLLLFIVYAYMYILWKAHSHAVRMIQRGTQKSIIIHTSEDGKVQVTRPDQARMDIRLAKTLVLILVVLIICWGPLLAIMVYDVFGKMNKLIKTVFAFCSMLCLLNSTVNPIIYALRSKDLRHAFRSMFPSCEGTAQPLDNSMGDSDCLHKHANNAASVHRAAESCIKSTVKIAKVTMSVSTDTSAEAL", "experiment": "Radioligand displacement (Ricerca)", "format": "binding"}, "[7]": {"tested_on": "Glutamate (NMDA, PCP)", "experiment": "Radioligand displacement (Ricerca)", "format": "binding, rat", "details": "10 μM"}, "[8]": {"biological_target": "T4, Histamine H3 (Homo sapiens, UniProt Q9Y5N1)", "T4 construct": "Ricerca (contract laboratory that ran the panel)", "T4 sequence (Q9Y5N1 whole entry)": "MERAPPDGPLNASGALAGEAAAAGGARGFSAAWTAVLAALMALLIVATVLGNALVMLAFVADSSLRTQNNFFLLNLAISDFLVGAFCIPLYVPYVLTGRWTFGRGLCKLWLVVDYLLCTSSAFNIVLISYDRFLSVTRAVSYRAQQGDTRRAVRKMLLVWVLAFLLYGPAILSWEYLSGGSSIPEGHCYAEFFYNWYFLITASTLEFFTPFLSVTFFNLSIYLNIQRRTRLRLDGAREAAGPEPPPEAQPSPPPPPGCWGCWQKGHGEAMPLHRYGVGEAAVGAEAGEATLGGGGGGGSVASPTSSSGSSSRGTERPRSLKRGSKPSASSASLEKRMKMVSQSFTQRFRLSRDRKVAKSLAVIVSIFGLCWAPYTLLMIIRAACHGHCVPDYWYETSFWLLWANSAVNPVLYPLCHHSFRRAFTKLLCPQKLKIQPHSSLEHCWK", "experiment": "Radioligand displacement (Ricerca)", "format": "binding"}, "[9]": {"biological_target": "T5, Muscarinic M1 (Homo sapiens, UniProt P11229)", "T5 construct": "Ricerca (contract laboratory that ran the panel)", "T5 sequence (P11229 whole entry)": "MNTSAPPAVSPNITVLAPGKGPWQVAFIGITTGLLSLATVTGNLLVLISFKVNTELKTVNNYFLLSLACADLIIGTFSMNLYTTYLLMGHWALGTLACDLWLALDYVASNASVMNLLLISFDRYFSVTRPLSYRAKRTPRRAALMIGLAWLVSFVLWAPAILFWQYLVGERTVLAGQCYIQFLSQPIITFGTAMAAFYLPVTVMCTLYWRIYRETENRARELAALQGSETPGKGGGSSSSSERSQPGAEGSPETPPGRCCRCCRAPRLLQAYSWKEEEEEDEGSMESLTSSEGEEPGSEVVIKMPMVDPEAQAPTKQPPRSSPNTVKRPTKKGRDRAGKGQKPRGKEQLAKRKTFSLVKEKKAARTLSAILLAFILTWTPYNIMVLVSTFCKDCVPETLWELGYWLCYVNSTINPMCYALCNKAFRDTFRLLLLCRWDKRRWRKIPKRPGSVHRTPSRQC", "experiment": "Radioligand displacement (Ricerca)", "format": "binding"}, "[10]": {"biological_target": "T6, Neuropeptide Y (Y2) (Homo sapiens, UniProt P49146)", "T6 construct": "Ricerca (contract laboratory that ran the panel)", "T6 sequence (P49146 whole entry)": "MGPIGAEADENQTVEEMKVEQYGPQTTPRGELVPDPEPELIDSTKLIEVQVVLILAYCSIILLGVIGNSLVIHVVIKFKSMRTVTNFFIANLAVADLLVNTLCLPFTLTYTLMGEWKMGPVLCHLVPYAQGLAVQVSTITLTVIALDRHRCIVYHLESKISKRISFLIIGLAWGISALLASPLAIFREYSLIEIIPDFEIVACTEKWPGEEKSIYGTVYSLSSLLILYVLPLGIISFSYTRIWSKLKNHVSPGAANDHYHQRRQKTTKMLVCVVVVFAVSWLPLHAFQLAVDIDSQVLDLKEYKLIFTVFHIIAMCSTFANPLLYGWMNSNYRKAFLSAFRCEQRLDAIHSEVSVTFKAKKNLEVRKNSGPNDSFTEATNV", "experiment": "Radioligand displacement (Ricerca)", "format": "binding"}, "[11]": {"biological_target": "T7, Opiate (DOP) (Homo sapiens, UniProt P41143)", "T7 construct": "Ricerca (contract laboratory that ran the panel)", "T7 sequence (P41143 whole entry)": "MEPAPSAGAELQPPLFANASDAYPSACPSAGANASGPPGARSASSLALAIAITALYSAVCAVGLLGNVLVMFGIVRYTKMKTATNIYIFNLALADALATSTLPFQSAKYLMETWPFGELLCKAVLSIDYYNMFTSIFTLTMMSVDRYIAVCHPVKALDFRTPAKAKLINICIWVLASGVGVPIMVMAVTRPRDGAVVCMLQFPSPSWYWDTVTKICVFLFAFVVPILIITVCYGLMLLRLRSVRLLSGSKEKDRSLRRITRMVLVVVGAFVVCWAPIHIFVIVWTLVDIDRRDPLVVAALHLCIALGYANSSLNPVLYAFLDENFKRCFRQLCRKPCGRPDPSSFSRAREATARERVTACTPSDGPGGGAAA", "experiment": "Radioligand displacement (Ricerca)", "format": "binding"}, "[12]": {"biological_target": "T8, Opiate (KOP) (Homo sapiens, UniProt P41145)", "T8 construct": "Ricerca (contract laboratory that ran the panel)", "experiment": "Radioligand displacement (Ricerca)", "format": "binding"}, "[13]": {"biological_target": "T9, Prostanoid EP4 (Homo sapiens, UniProt P35408)", "T9 construct": "Ricerca (contract laboratory that ran the panel)", "T9 sequence (P35408 whole entry)": "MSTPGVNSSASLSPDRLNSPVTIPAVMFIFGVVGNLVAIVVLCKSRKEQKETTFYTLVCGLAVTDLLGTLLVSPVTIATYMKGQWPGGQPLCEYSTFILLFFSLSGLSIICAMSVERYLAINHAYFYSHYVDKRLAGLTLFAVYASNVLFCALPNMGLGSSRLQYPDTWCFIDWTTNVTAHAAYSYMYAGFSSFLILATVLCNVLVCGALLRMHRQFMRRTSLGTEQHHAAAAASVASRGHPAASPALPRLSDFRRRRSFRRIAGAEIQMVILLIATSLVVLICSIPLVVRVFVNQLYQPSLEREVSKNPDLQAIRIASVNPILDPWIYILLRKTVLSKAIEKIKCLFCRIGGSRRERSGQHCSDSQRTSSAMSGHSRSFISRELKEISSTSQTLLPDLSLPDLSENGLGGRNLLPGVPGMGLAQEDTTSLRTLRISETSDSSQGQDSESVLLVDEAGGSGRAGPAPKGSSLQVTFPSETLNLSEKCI", "experiment": "Radioligand displacement (Ricerca)", "format": "binding"}, "[14]": {"biological_target": "T10, Serotonin 5-HT2B (Homo sapiens, UniProt P41595)", "T10 construct": "Ricerca (contract panel)", "T10 sequence (P41595 whole entry)": "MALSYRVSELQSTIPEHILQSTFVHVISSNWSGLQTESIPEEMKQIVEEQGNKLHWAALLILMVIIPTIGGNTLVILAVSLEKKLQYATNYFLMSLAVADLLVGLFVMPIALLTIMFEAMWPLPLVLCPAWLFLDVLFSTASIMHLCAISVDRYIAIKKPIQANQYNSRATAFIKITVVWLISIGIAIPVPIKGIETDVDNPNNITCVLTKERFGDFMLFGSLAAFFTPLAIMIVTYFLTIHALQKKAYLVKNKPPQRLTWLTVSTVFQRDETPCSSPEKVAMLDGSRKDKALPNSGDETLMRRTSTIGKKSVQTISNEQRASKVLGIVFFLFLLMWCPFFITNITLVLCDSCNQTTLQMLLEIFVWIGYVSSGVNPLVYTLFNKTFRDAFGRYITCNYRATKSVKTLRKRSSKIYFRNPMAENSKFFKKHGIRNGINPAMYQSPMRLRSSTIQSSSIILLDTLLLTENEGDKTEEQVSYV", "experiment": "Radioligand displacement (Ricerca)", "format": "binding"}, "[15]": {"biological_target": "T11, Serotonin 5-HT3 (Homo sapiens, UniProt P46098)", "T11 construct": "Ricerca (contract panel)", "T11 sequence (P46098 24-478)": "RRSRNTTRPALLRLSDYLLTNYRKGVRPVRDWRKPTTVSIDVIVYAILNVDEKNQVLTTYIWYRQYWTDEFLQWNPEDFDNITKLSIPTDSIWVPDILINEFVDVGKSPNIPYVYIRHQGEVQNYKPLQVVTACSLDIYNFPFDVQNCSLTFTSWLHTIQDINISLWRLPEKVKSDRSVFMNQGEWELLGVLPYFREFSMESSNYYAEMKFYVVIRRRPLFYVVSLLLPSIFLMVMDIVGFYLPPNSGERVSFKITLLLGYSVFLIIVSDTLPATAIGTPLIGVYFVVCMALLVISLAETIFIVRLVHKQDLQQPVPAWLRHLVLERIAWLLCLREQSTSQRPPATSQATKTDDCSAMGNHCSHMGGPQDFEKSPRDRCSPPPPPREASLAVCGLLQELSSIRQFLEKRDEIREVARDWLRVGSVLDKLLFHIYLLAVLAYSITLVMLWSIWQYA", "experiment": "Radioligand displacement (Ricerca)", "format": "binding"}, "[16]": {"biological_target": "T12, Sigma σl (Homo sapiens, UniProt Q99720)", "T12 construct": "Ricerca (contract panel)", "T12 sequence (Q99720 whole entry)": "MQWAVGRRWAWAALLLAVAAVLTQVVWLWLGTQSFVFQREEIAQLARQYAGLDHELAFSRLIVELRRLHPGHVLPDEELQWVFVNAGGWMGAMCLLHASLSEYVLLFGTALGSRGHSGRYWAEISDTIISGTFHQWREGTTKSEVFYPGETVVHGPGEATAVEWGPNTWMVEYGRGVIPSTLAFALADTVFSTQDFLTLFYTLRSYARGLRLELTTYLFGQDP", "experiment": "Radioligand displacement (Ricerca)", "format": "binding"}, "[17]": {"tested_on": "Thyroid hormone", "experiment": "Radioligand displacement (Ricerca)", "format": "binding, human", "details": "10 μM"}, "[18]": {"biological_target": "T13, Transporter, DAT (Homo sapiens, UniProt Q01959)", "T13 construct": "Ricerca (contract panel)", "T13 sequence (Q01959 whole entry)": "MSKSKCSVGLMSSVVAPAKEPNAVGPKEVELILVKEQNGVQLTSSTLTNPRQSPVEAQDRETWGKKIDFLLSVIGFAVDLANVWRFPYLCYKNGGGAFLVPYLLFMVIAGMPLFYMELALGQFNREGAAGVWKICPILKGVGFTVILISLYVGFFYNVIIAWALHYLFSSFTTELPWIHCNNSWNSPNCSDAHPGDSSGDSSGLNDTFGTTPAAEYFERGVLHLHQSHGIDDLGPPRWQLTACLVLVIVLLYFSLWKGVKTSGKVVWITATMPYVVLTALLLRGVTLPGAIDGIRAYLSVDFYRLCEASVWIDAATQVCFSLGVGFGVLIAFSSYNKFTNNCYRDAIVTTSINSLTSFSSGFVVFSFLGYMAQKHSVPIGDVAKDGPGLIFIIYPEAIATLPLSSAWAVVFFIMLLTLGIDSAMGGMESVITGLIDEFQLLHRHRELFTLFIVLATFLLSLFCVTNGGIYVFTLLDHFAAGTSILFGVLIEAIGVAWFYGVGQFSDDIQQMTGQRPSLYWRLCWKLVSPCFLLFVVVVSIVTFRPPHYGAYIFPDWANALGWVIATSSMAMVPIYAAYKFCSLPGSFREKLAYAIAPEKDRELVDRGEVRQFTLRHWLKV", "experiment": "Radioligand displacement (Ricerca)", "format": "binding"}, "[19]": {"biological_target": "T14, Transporter, SERT (Homo sapiens, UniProt P31645)", "T14 construct": "Ricerca (contract panel)", "experiment": "Radioligand displacement (Ricerca)", "format": "binding"}}}
{"compound": "Cc1cc(NC(=O)Nc2ccc(F)c(F)c2)n(-c2ccccc2)n1", "note": "[VU0456810, 1-(3,4-difluorophenyl)-3-(3-methyl-1-phenyl-1H-pyrazol-5-yl)urea]", "values": [{"measurement": "Potency", "setting": "[1]", "result": "Inactive"}, {"measurement": "appearance of animals", "setting": "[2]", "result": "appeared normal and not under obvious distress"}, {"measurement": "inhibition at 10 µM", "setting": "[3]", "result": 1, "unit": "%"}, {"measurement": "% Inhibition", "setting": "[4]", "result": 1, "unit": "%"}, {"measurement": "% Inhibition", "setting": "[5]", "result": 3, "unit": "%"}, {"measurement": "inhibition at 10 µM", "setting": "[6]", "result": 8, "unit": "%"}, {"measurement": "% Inhibition", "setting": "[7]", "result": 1, "unit": "%"}, {"measurement": "inhibition at 10 µM", "setting": "[8]", "result": 1, "unit": "%"}, {"measurement": "inhibition at 10 µM", "setting": "[9]", "result": 0, "unit": "%"}, {"measurement": "inhibition at 10 µM", "setting": "[10]", "result": -5, "unit": "%"}, {"measurement": "inhibition at 10 µM", "setting": "[11]", "result": -4, "unit": "%"}, {"measurement": "inhibition at 10 µM", "setting": "[12]", "result": 1, "unit": "%"}, {"measurement": "inhibition at 10 µM", "setting": "[13]", "result": -4, "unit": "%"}, {"measurement": "inhibition at 10 µM", "setting": "[14]", "result": "< 50", "unit": "%"}, {"measurement": "% Inhibition", "setting": "[14]; 10 μM", "result": 46, "unit": "%"}, {"measurement": "inhibition at 10 µM", "setting": "[15]", "result": 1, "unit": "%"}, {"measurement": "inhibition at 10 µM", "setting": "[16]", "result": "< 50", "unit": "%"}, {"measurement": "% Inhibition", "setting": "[16]; 10 μM", "result": 49, "unit": "%"}, {"measurement": "% Inhibition", "setting": "[17]", "result": 8, "unit": "%"}, {"measurement": "inhibition at 10 µM", "setting": "[18]", "result": 12, "unit": "%"}, {"measurement": "inhibition at 10 µM", "setting": "[19]", "result": -1, "unit": "%"}]}
